In patent publication US10238658B2, “1-pyrazolyl-3-(4-((2-anilinopyrimidin-4-yl) oxy) napththalen-1-yl) ureas as p38 MAP kinase inhibitors” (Respivert Limited, priority 2011, dated 2019):

Legend:
[1] = system: PBMC; test: Cell mitosis assay; format: cell-based; settings: Homo sapiens; for inhibition at 5 µg/mL: read-out: Mitosis Assay % inhibition in PBMC Cells at concn 5 μg/mL
Method in brief: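 Mitotic index read by flow cytometry (lymphocyte gate) after phospho-histone 3 plus propidium iodide staining of fixed, permeabilised cells. Healthy-donor PBMCs got 2% PHA for 48 hr, test compounds for 20 hr, and 0.1 μg/mL demecolcine during the final 2 hr.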

[2] = system: HRV16; test: HRV16 induced CPE in MRC5 cells; format: cell-based; settings: Human rhinovirus sp.; for inhibition at 0.04 µg/mL: HRV16, MRC5, at 0.04 μg/mL, read-out: HRV CPE (MRC5) % inhibition
Description: The supernatants were aspirated, and then fresh media added followed by incubation for 4 days. Where appropriate, cells were pre-incubated with compound or DMSO for 2 hr, and the compounds and DMSO added again after washout of the virus.
The percentage inhibition for each well was calculated. The IC50 value was calculated from the concentration-response curve generated by the serial dilutions of the test compounds.

[3] = system: TNFα; test: LPS-induced TNFα release in THP-1 cells; format: cell-based; settings: Homo sapiens, THP-1, THP1 cells
Description: THP-1 cells, a human monocytic cell line, were stimulated with 3 μg/mL of LPS (from E. Coli; 0111:B4, Sigma) for 4 hr and the supernatant collected for determination of the TNFα concentration by sandwich ELISA (Duo-set, R&D systems). The inhibition of TNFα production was calculated at each concentration by comparison with vehicle control.

[4] = system: RSV A2; test: In vitro RSV virus load (F-protein ELISA) in primary bronchial epithelial cells; format: cell-based, respiratory syncytical virus; settings: human respiratory syncytial virus, Primary bronchial epithelial cell; for inhibition at 0.04 µg/mL: at 0.04 μg/mL, read-out: RSV (F-Elisa) (HBEC) % inhibition
Description: Normal human bronchial epithelial cells (NHBEC) grown in 96 well plates were infected with RSV A2 (Strain A2, HFA, Salisbury, UK) at an MOI of 0.001 in the LHC8 Media:RPMI-1640 (50:50) containing 15 mM magnesium chloride and incubated for 1 hr at 37° C. for adsorption. The cells were then washed with PBS (3×200 μL), fresh media (200 μL) was added and incubation continued for 4 days. Where appropriate, cells were pre-incubated with the compound or DMSO for 2 hr, and then added again after washout of the virus.
The cells were fixed with 4% formaldehyde in PBS solution (50 μL) for 20 min, washed with washing buffer (3×200 μL; PBS including 0.5% BSA and 0.05% Tween-20) and incubated with blocking solution (5% condensed milk in PBS) for 1 hr. Cells were then washed with washing buffer (3×200 μL) and incubated for 1 hr at RT with anti-RSV (2F7) F-fusion protein antibody (40 μL; mouse monoclonal, lot 798760, Cat. No. ab43812, Abcam) in 5% BSA in PBS-tween). After washing, cells were incubated with an HRP-conjugated secondary antibody solution (50 μL) in 5% BSA in PBS-Tween (lot 00053170, Cat.No. P0447, Dako) and then TMB substrate (50 μL; substrate reagent pack, lot 269472, Cat. No. DY999, R&D Systems, Inc.) was added. This reaction was stopped by the addition of 2N H2SO4 (50 μL) and the resultant signal was determined colorimetrically (OD: 450 nm with a reference wavelength of 655 nm) in a microplate reader (Varioskan® Flash, ThermoFisher Scientific).
After washing with washing buffer, 1% SDS in distilled water (100 μL) was added to each well, and plates were shaken lightly on the shaker for 1 hr prior to reading the absorbance at 595 nm. The measured OD450-655 readings were corrected to the cell number by dividing the OD450-655 by the OD595 readings. The percentage inhibition for each well was calculated and the IC50 value was calculated from the concentration-response curve generated from the serial dilutions of compound.

[5] = system: IL-8; test: Rhinovirus-induced IL-8 release in BEAS2B cells; format: cell-based; settings: Homo sapiens, BEAS-2B
Method in brief: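 BEAS2B cells infected with HRV RV16 at MOI 5 for 2 h at 33 °C, washed, then cultured 72 h; compounds given 2 h before infection and again after washout. IL-8 measured in supernatant by ELISA; surface ICAM-1 by cell-based ELISA (OD450–655), normalised to crystal violet cell count (OD595).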

[6] = system: TNFα; test: LPS-induced TNFα release in d-U937 cells; format: cell-based; settings: Homo sapiens, dU937, dU937 cells; relative to 10 μg/mL BIRB796; read-out: LPS Induced Release TNFα REC50 (dU937)
Method in brief: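 U937 cells differentiated with PMA (100 ng/mL, 48–72 hr) were pre-incubated with compound for 2 hr, then stimulated with E. coli O111:B4 LPS (0.1 μg/mL) for 4 hr. Supernatant cytokine measured by sandwich ELISA; inhibition vs vehicle control at each concentration, REC50 taken from the concentration-response curve.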

Row | SMILES | inhibition at 5 µg/mL [1] [%] | inhibition at 0.04 µg/mL [2] [%] | IC50 [3] [nM] | inhibition at 0.04 µg/mL [4] [%] | inhibition at 0.04 µg/mL ([5]; at 0.04 μg/mL, read-out: HRV IL-8 (BEAS2B) % inhibition) [%] | EC50 [6] [nM] | inhibition at 1 µg/mL ([1]; read-out: Mitosis Assay % inhibition in PBMC Cells at concn 1 μg/mL) [%] | IC50 ([2]; HRV16, MRC5 cells, HRV-16) [nM] | IC50 ([4]; read-out: RSV (F-Elisa) (HBEC) IC50) [nM] | IC50 ([5]; BEAS2B cells, HRV-16) [nM]
1 | Cc1ccc(-n2nc(C(C)(C)C)cc2NC(=O)Nc2ccc(Oc3ccnc(Nc4cccc(O)c4)n3)c3ccccc23)cc1 [Example 2, 1-(3-(tert-Butyl)-1-(p-tolyl)-1H-pyrazol-5-yl)-3-(4-((2-((3-hydroxyphenyl)amino)pyrimidin-4-yl)oxy)naphthalen-1-yl)urea] | 70.6 | 5 | 2.8 | 42 | 100 | 2.4 | – | – | – | –
2 | Cc1ccc(-n2nc(C(C)(C)C)cc2NC(=O)Nc2ccc(Oc3ccnc(Nc4ccccc4)n3)c3ccccc23)cc1 [Example 1, 1-(3-(tert-Butyl)-1-(p-tolyl)-1H-pyrazol-5-yl)-3-(4-(2-(phenylamino)pyrimidin-4-yloxy)naphthalen-1-yl)urea] | 31.3 | 57 | 3.4 | 85 | – | 2.3 | 13.7 | 17.1 | 15.4 | 0.036
